# Test results from publication PMC10686989, “Distinct activation mechanisms of β-arrestin-1 revealed by ^19F NMR spectroscopy” (Nature Communications, 2023).
# Legend:
# [1] = target: T1, βarr1 (Homo sapiens, UniProt P49407, C125S/C140L/C150V/C242V/C251V/C269S/C59V/D390C); assay: 19F CEST experiments on βarr1; assay type: biochemical
# T1 construct: we started from a full-length functional cysteine-less βarr1 construct[20]; 6xHis-tag with SSG linker and thrombin cleavage site (N, cleaved yes); made in house; host or cells: E. coli BL21(DE3)
# Procedure: The ^19F CEST experiments were acquired at 298 K on Bruker AVANCE III HD 800 MHz spectrometer equipped a ^1H-^19F/^13C/^15N TCI triple resonance cryogenic probe. Sample preparation was the same as for the 1D ^19F NMR experiments, and the protein concentrations were in the range of 50–100 μM depending on the expression levels of different constructs. For each ^19F-labeled sample, a series of 1D saturation transfer experiments were recorded using a 0.2 s recovery delay followed by a 1.8 s saturation period using irradiation field strengths B1 of 10 Hz. For each sample, the positions and spacings of the carrier frequencies for saturation were determined based on the multiple signals observed in the 1D ^19F spectra, normally covering the chemical shift ranges of the signals of interest. The data were collected with a spectral width of 15,000 Hz and the scan number in the range of 400–1500. The spectra were processed and analyzed using the Bruker Topspin 4.2.0 software. The CEST profiles were drawn using GraphPad Prism® 9.
# [2] = system: βarr1-3Q (K232Q/R236Q/K250Q); assay: 1D 19F NMR of PIP2-binding deficient mutant; assay type: biochemical, human; settings: H295C site
# Procedure: The ^19F-labeled βarr1 was diluted to 50 μM using buffer E before incubation with peptides or PIP2. The V2Rpp, β2AR-GRK2pp/GRK6pp or PIP2 were added at 1.2-fold, 3-fold, and 1.5-fold molar ratio excess to the protein, respectively. For the membrane-bound sample, the reconstituted nanodiscs were added at twofold molar ratio of βarr1. All complexes were incubated at 25 °C for 1 h, and the freshly prepared samples were immediately subjected to ^19F NMR experiments.
# NMR samples were prepared in buffer E to a final volume of 140 μL, supplemented with 1 mM DTT, 10% D2O for field lock, and 1 μM sodium trifluoroacetate (STFA) as the internal chemical shift reference. All samples were sterile-filtered and loaded into sterile 3 mm NMR microtubes to prevent microbial contamination. Final protein concentrations vary for different constructs, depending on their expression levels and stabilities, but all in the range of 20–50 μM.
# (§1) All ^19F NMR spectra were recorded at 298 K using a Bruker AVANCE III HD 800 MHz spectrometer equipped with a ^1H-^19F/^13C/^15N TCI triple resonance cryogenic probe. […] The carrier frequency was set to −68.0 ppm and the spectra were recorded with 4k points and a spectral width of 15,000 Hz. […]
# (§2) All NMR data were analyzed using the MestraNova 12.0.0 software (https://mnova.pl). […] Peak intensities, integrated peak area and linewidths were determined based on the fitted results.
# [3] = target: T1, βarr1; assay: 19F NMR titration of V2Rpp or PIP2 into βarr1 (activation); assay type: biochemical; settings: V2Rpp up to 1.2:1, PIP2 up to 3.0:1 molar ratio
# Procedure: All ^19F NMR spectra were recorded at 298 K using a Bruker AVANCE III HD 800 MHz spectrometer equipped with a ^1H-^19F/^13C/^15N TCI triple resonance cryogenic probe. All data were acquired and processed using the Bruker Topspin 4.2.0 software. For all 1D ^19F NMR experiments, the traditional one-pulse sequence was used. The carrier frequency was set to −68.0 ppm and the spectra were recorded with 4k points and a spectral width of 15,000 Hz. Because accurate calibration of the 90° excitation pulse length for individual samples is not practical due to the low protein concentrations, we used the 90° pulse length calibrated from a standard sample (0.05% Trifluoro-toluene in CDCl3) for all βarr1 samples. […] Therefore, all the ^19F experiments were conducted with a 100 ms relaxation delay, and acquired using 100,000–200,000 scans depending on the sample condition, yielding a signal-to-noise (S/N) ratio of approximately 50. […]
# All NMR data were analyzed using the MestraNova 12.0.0 software (https://mnova.pl). […] Peak intensities, integrated peak area and linewidths were determined based on the fitted results. […]
# (c) Estimation of the V2Rpp-βarr1 binding affinity based on peak intensity changes of the D390C site of βarr1 titrated with V2Rpp. […] The values of θ were calculated as by θ = V-,⁄(V-. + V-,), in which VS1 and VS2 correspond to the volume integrals of the peaks of S1 and S2 states, respectively. […]
# [4] = system: βarr1-1-395; assay: 1D 19F NMR of distal CT-deleted construct; assay type: biochemical, human; settings: H295C site; PIP2
# Source text: The cysteine-less mutant (C59V/C125S/C140L/C150V/C242V/C251V/C269S) of the long splice variant of human βarr1 was used for introduction of single site cysteine mutation for ^19F labeling. The sequence was codon-optimized for expression in Escherichia coli and cloned into a pET-28a(+) vector (Novagen), with an N-terminal 6xHis-tag, followed by an SSG linker and a thrombin cleavage site. All mutants, including the 1–382 (βarr1-ΔCT) and 1–395 truncation constructs, were generated using site-directed mutagenesis kits (Thermo Fisher). Primer sequences for generating the mutants are listed in Supplementary Table 4.
# The ^19F-labeled βarr1 was diluted to 50 μM using buffer E before incubation with peptides or PIP2. The V2Rpp, β2AR-GRK2pp/GRK6pp or PIP2 were added at 1.2-fold, 3-fold, and 1.5-fold molar ratio excess to the protein, respectively. […]
# as §1, §2
# T1 sequence (P49407 whole entry C59V/C125S/C140L/C150V/C242V/C251V/C269S/D390C): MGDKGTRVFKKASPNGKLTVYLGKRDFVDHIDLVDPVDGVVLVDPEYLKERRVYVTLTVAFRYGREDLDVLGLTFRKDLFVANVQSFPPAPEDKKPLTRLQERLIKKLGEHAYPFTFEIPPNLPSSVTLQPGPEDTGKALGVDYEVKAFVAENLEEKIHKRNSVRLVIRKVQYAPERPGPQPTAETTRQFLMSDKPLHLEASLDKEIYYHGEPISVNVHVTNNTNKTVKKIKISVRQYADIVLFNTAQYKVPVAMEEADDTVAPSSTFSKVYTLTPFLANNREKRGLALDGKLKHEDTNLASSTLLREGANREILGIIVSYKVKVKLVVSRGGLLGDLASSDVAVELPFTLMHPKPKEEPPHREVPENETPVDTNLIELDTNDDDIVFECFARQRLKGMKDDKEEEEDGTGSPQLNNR
compound,measurement,setting,value
"CCCCCCCC(=O)OC[C@H](COP(=O)(O)O[C@@H]1[C@H](O)[C@H](O)[C@@H](OP(=O)(O)O)[C@H](OP(=O)(O)O)[C@H]1O)OC(=O)CCCCCCC [PIP2, diC8-PI(4,5)P2]",Intermediate S* state by CEST,[1]; D390C site,induces an intermediate conformational species designated as S*
same,Intermediate S* state by CEST,[1]; E404C and T6C sites,induces the conformational equilibrium to shift from the basal towards an intermediate S* state
same,Intermediate S* state by CEST,[1]; H295C site,present in relatively large fraction in both the basal and PIP2-bound states
same,Transition to S2 state,[2],such spectral changes were not observed
same,Activation of βarr1 at D390C on titration,[3]; D390C site,minimally affects
same,Activation of βarr1 at H295C on titration,[3]; H295C site,partially activates
same,Transition to S2 state,[4],promotes the S2 conformation to an extent comparable with full-length βarr1
